Reference: publication PMC4111740, “Ligand-Based Pharmacophore Modeling and Virtual Screening for the Discovery of Novel 17β-Hydroxysteroid Dehydrogenase 2 Inhibitors” (Journal of Medicinal Chemistry, 2014)
“Also recorded” adds a separate entry of the source.

molecular target: T1, 11β-HSD1 (Homo sapiens, UniProt P28845); experiment: 11β-HSD1 activity in lysates of stably transfected cells; assay type: biochemical; conditions: lysates
T1 construct: expressed in transfected cells
Procedure: The methods to determine 11β-HSD1 and -2 activity were performed as described previously.[64] Briefly, lysates of stably transfected cells, expressing either 11β-HSD1 or 11β-HSD2, were incubated for 10 min at 37 °C in TS2 buffer in a final volume of 22 μL containing either solvent (0.2% DMSO) or the inhibitor at the respective concentration. The nonselective 11β-HSD inhibitor glycyrrhetinic acid was used as positive control. Activity measurements of 11β-HSD1 were performed with 190 nM unlabeled cortisone, 10 nM radiolabeled cortisone, and 500 μM NADPH. To measure 11β-HSD2 activity, lysates were incubated with 40 nM unlabeled cortisol, 10 nM radiolabeled cortisol, and 500 μM NAD^+. Reactions were stopped after 10 min by adding an excess of unlabeled cortisone and cortisol (1:1, 2 mM in methanol). The steroids were separated by TLC, followed by scintillation counting and calculation of substrate concentration. Data were collected from at least three independent measurements.

T1 sequence (P28845 whole entry): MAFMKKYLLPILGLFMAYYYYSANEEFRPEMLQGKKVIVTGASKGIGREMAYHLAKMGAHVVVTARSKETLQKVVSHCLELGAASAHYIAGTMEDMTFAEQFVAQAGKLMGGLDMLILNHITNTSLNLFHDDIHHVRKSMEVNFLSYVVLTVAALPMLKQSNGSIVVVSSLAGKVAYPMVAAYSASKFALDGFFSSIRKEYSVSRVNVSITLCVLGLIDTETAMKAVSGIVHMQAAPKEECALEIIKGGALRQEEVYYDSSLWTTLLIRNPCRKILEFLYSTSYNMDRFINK

SMILES	11β-HSD1 versus 17β-HSD2 potency (in words)
COc1ccc(S(=O)(=O)Nc2cccc(O)c2)c2c1CCCC2 [Compound 23]	almost equipotent toward 17β-HSD2 and 11β-HSD1; also recorded: equipotent 17β-HSD2 and 11β-HSD1 inhibitors

molecular target: T2, 17β-HSD2 (Homo sapiens, UniProt P37059); experiment: 17β-HSD2 activity in lysates of transfected HEK-293 cells (cell-free, radiolabeled estradiol); assay type: biochemical; conditions: Table S2, virtual screening hits, tested at 20 μM in lysates
T2 construct: expressed in transfected cells; host or cells: HEK-293 (transient, calcium phosphate), lysate
T2 sequence (P37059 1-387): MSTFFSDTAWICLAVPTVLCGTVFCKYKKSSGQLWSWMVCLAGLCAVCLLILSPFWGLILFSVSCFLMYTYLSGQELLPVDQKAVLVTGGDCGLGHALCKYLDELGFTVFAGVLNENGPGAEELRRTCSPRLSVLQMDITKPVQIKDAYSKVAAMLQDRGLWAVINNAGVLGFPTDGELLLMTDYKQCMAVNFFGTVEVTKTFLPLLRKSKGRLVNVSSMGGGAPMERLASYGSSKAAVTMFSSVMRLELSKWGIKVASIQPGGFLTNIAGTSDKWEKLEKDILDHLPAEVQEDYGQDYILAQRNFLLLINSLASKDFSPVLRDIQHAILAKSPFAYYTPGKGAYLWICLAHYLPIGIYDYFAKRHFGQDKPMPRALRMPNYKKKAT
Procedure: Next, the 17β-HSD2 inhibitory activities of the chosen hits were evaluated in a cell-free assay. The activities were first determined at an inhibitor concentration of 20 μM using lysates of transfected HEK-293 cells. In all experiments, vehicle was included as negative control and N-(3-methoxyphenyl)-N-methyl-5-m-tolylthiophene-2-carboxamide (compound 19 from ref ([26])) as positive control.
HEK-293 cells were transfected by the calcium phosphate precipitation method with plasmids for human 17β-HSD1, 17β-HSD2, or 11β-HSD2. Cells were cultivated for 48 h, washed with phosphate-buffered saline, and centrifuged for 4 min at 150g. After removal of the supernatants, cell pellets were snap frozen in dry ice and stored at −80 °C until further use.
Lysates of human embryonic kidney cells (HEK-293) expressing either 17β-HSD1 or 17β-HSD2 were incubated for 10 min at 37 °C in TS2 buffer in a final volume of 22 μL containing either solvent (0.2% DMSO/chloroform) or the inhibitor at the respective concentration. N-(3-Methoxyphenyl)-N-methyl-5-m-tolylthiophene-2-carboxamide (compound 19 in ref ([26])) and apigenin[50] were used as positive controls for 17β-HSD1 and 17β-HSD2, respectively, in all experiments. 17β-HSD1 activity was measured in the presence of 190 nM unlabeled estrone, 10 nM radiolabeled estrone, and 500 μM NADPH. In contrast, 17β-HSD2 activity was determined in the presence of 190 nM unlabeled estradiol, 10 nM radiolabeled estradiol, and 500 μM NAD^+. Reactions were stopped after 10 min by adding an excess of unlabeled estradiol and estrone (1:1, 2 mM in methanol). Possible promiscuous enzyme inhibition by aggregate formation of the chemicals was excluded by measuring the inhibition of the enzyme activity by the compounds in the presence of 0.1% Triton X-100.[36] […] To exclude irreversible inhibition by the compounds investigated,[35] cell lysates were preincubated with the compounds for 0, 10, and 30 min, respectively, followed by measurement of the enzyme activity. […] The steroids were separated by TLC, followed by scintillation counting and calculation of substrate concentration. Data were collected from at least three independent measurements.

SMILES	17β-HSD2 Activity (in words)
COc1ccc(C(=O)COC(=O)c2ccc(O)cc2)cc1 [AK-918/12108002]	Inactive
CCCC(=O)Nc1ccc(C(=O)NCc2ccc(OC)cc2)cc1 [AJ-292/42647512]	Inactive
COc1ccc(OC)c(NC(=O)C(C)Oc2ccc(-c3ccccc3)cc2)c1 (stereo not drawn) [AN-329/42958201]	Inactive
O=C(COC(=O)c1ccc2c(c1)C(=O)N(c1cccc(O)c1)C2=O)c1ccccc1 [AK-918/37182008]	Inactive
COc1cc(C=Nc2ccc(OC(F)(F)F)cc2)ccc1O [AN-329/11450193]	Inactive
COc1ccccc1NC(=O)COc1ccc(/C=c2/sc3n(c2=O)CCN=3)cc1 [AH-487/15020191]	Inactive
O=C(CSc1ccccc1)Nc1ccc(C(=O)Nc2ccc(O)cc2)cc1 [AN-979/42723474]	Inactive
COc1ccccc1NC(=O)CCC(=O)OC(C)C(=O)c1ccccc1 (stereo not drawn) [AG-690/15435864]	Inactive
O=C(Nc1ccc(O)cc1)c1ccc2c(c1)C(=O)N(Cc1ccco1)C2=O [AN-979/41971109]	Inactive
COc1ccccc1NCC(=O)N/N=C/c1sccc1C [AN-329/11413636]	Inactive
O=C(COc1ccc(-c2ccccc2)cc1)Nc1ccccc1C(=O)NC1CCCCC1 [AN-329/42613159]	Inactive
O=C(Cn1nnc2ccccc21)N/N=C/c1ccccc1F [AG-205/07947037]	Inactive
CN(C)Cc1ccccc1Sc1ccc(O)cc1O [AE-641/30109032]	Inactive
COC(=O)c1cc(NC(=O)c2ccc(OC)cc2)ccc1O [AN-652/43163172]	Inactive
COc1cc(C(=O)Nc2cc(C(F)(F)F)ccc2N2CCOCC2)ccc1O [AP-906/41927951]	Inactive
Oc1cccc(C(O)CNCc2ccncc2)c1 (stereo not drawn) [AN-465/42246299]	Inactive
CCn1c(Cc2ccccc2)nnc1SCC(=O)Nc1ccccc1OC [AG-690/40750820]	Inactive
Cc1ccccc1/C=N/NC(=O)Cn1nnc2ccccc21 [AK-968/11367105]	Inactive
O=C(Cn1nnc2ccccc21)c1ccc(-c2ccccc2)cc1 [AK-918/11592002]	Inactive
Oc1ccc(-c2cn3cc(C(F)(F)F)ccc3n2)cc1 [AQ-776/42801516]	Inactive

same assay, conditions: relative to compound 12

SMILES	less potent than the most active hit (17β-HSD2)
O=C(CSc1nccc(O)n1)Nc1cccc2nsnc12 [Compound 15]	5 fold

molecular target: T2, 17β-HSD2; experiment: 17β-HSD2 activity in intact transfected HEK-293 cells; assay type: cell-based; conditions: intact HEK-293 cells
Procedure: (§1) Human embryonic kidney cells (HEK-293) were cultivated in DMEM containing 4.5 g/L glucose, 10% fetal bovine serum, 100 U/mL penicillin, 0.1 mg/mL streptomycin, 1× MEM nonessential amino acids, and 10 mM HEPES buffer, pH 7.4. The cells were incubated at 37 °C until 80% confluency. The cells were transfected using the calcium phosphate method with expression plasmids for 17β-HSD2 and 17β-HSD3. After 24 h, the cells were trypsinized and seeded on poly-L-lysine-coated 96-well plates (15 000 cells/well).
(§2) The inhibitory activities were measured 24 h after seeding as follows: old medium was aspirated and replaced by 30 μL of charcoal-treated DMEM (cDMEM). Ten microliters of inhibitor dissolved in cDMEM into the respective concentration was added, and mixtures were preincubated at 37 °C for 20 min. 17β-HSD2 inhibitory activities were measured in the presence of 190 nM unlabeled estradiol and 10 nM radiolabeled estradiol. N-(3-Methoxyphenyl)-N-methyl-5-m-tolylthiophene-2-carboxamide (compound 19 in ref ([26])) was used as positive control. The reaction mixtures were incubated for 20 min, and the reactions were stopped by adding an excess of estradiol and estrone (1:1, 2 mM in methanol) to the mixture.

SMILES	17β-HSD2 inhibition in intact cells (in words)
O=C(CSc1nccc(O)n1)Nc1cccc2nsnc12 [Compound 15]	concentration-dependently inhibited 17β-HSD2
O=S(=O)(Nc1ccc(O)c(Cl)c1)c1ccc(F)cc1 [Compound 13]	concentration-dependently inhibited 17β-HSD2
Cc1cc(C)c(OCC(=O)N/N=C/c2ccc(O)cc2O)c(Br)c1 [Compound 11]	concentration-dependently inhibited 17β-HSD2

molecular target: T3, 17β-HSD3 (Homo sapiens, UniProt P37058); experiment: 17β-HSD3 activity in intact transfected HEK-293 cells; assay type: cell-based; conditions: intact cells
T3 construct: expressed in transfected cells; host or cells: HEK-293 (transient, calcium phosphate), intact cells
T3 sequence (P37058 1-310): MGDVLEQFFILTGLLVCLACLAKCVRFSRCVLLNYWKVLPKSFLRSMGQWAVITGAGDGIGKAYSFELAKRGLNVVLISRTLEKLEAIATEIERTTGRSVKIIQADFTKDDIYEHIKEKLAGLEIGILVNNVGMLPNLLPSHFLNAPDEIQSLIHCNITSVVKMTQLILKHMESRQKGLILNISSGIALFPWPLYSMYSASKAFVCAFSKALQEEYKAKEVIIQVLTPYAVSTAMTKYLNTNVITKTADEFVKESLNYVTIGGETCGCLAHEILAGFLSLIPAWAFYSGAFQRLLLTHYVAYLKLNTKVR
Procedure: as §1, §2
17β-HSD3 inhibitory activities were measured in the presence of 190 nM unlabeled androstenedione and 10 nM radiolabeled androstenedione. Benzophenone-1 was used as positive control. The reaction mixtures were incubated for 30 min, and the reactions were stopped by adding an excess of androstenedione and testosterone (1:1, 2 mM in methanol). The steroids were separated by TLC, followed by scintillation counting and calculation of substrate concentration. Data was obtained from three independent measurements.

SMILES	17β-HSD3 inhibition (in words)
O=S(=O)(Nc1ccc(O)c(Cl)c1)c1ccc(F)cc1 [Compound 13]	equipotent toward these two enzymes
Cc1cc(C)c(S(=O)(=O)Nc2cccc(O)c2)cc1C [Compound 16]	weak 17β-HSD3 inhibitors
Cc1cc(C)c(OCC(=O)N/N=C/c2ccc(O)cc2O)c(Br)c1 [Compound 11]	more active against 17β-HSD3 than 17β-HSD2

same assay, conditions: rest activity at 20 μM, Table 3

SMILES	17β-HSD3 intact inhibition class (n.i.)
O=S(=O)(Nc1cccc(O)c1)c1ccc(Br)cc1 [Compound 21]	n.i
COc1ccc(S(=O)(=O)Nc2cccc(O)c2)c2c1CCCC2 [Compound 23]	n.i
Cc1ccc(NS(=O)(=O)c2cccc(Br)c2)cc1O [Compound 24]	n.i

tested on: 17β-HSD2; experiment: not given; conditions: Table S1; ref SI 1, 2, 4; read-out: IC50 17β-HSD2 (test set); cited from earlier work

SMILES	IC50
COc1ccc(-c2ccc(C(=O)N(C)Cc3cccc(O)c3)s2)cc1 [Compound 7]	161 nM
Cc1cccc(-c2ccc(C(=O)N(C)Cc3cccc(O)c3)s2)c1 [Compound 2]	164 nM
CN1C(=O)C[C@H](c2ccccc2)[C@@H]1[C@H](O)c1ccc(-c2cccnc2)s1 [Compound 3]	50 nM
COc1cccc(-c2ccc(C(=O)N(C)Cc3cccc(O)c3)s2)c1F [Compound 6]	61 nM
Oc1ccc(-c2ccc3c(O)cccc3c2)cc1 [Compound 1]	302 nM
CN1C(=O)C[C@H](c2ccccc2F)[C@@H]1[C@H](O)c1ccc(-c2ccccc2)s1 [Compound 8]	10 nM

same assay, conditions: Table S1; ref SI 3; read-out: IC50 17β-HSD2 (test set); cited from earlier work

SMILES	IC50
Oc1cccc(-c2ccnc(-c3ccc(Cl)s3)c2)c1 [Compound 4]	470 nM

same assay, conditions: at 1 µM, Table S1; ref SI 1, 2, 3, 5, 6; cited from earlier work

SMILES	17β-HSD2 enzyme inhibition (test set)
CS(=O)(=O)Nc1ccc(-c2ccc(O)cc2)cc1 [319015-65-1]	< 10%
CC(=O)Nc1cccc(-c2ccc(O)cc2)c1 [462660-26-0]	< 10%
Oc1cccc(-c2ccccc2)c1 [580-51-8]	< 10%

same assay, conditions: at 10 µM, Table S1; ref SI 7, 10; cited from earlier work

SMILES	17β-HSD2 enzyme inhibition (test set)
C[C@]12CC[C@@H]3c4ccc(O)cc4C(=O)C[C@H]3[C@@H]1CCC2=O [1476-34-2]	< 10%
